Assay results published in PMC11359932 (Viruses, 2024).
Like-named read-outs stand apart in the source and are kept apart here.

Key:
[1] = molecular target: T1, SARS-CoV-2 PLpro (Severe acute respiratory syndrome coronavirus 2, UniProt P0DTD1); experiment: biochemical; conditions: for IC50: CIY substrate; for Fold increase of IC50 in presence of Tween-20: 0.01% Tween-20 versus none
[2] = Cellular cytotoxicity (CCK-8 / WST assay); assay type: cell-based; conditions: African green monkey, Vero CCL81 cells; 48 h treatment
[3] = molecular target: USP25 (Homo sapiens, UniProt Q9UHP3); experiment: USP25 selectivity FRET assay (CFP-ubiquitin-YFP substrate); assay type: biochemical; conditions: for SI (selectivity index): IC50-USP25/IC50-PLpro
USP25, sequence (Q9UHP3 157-706): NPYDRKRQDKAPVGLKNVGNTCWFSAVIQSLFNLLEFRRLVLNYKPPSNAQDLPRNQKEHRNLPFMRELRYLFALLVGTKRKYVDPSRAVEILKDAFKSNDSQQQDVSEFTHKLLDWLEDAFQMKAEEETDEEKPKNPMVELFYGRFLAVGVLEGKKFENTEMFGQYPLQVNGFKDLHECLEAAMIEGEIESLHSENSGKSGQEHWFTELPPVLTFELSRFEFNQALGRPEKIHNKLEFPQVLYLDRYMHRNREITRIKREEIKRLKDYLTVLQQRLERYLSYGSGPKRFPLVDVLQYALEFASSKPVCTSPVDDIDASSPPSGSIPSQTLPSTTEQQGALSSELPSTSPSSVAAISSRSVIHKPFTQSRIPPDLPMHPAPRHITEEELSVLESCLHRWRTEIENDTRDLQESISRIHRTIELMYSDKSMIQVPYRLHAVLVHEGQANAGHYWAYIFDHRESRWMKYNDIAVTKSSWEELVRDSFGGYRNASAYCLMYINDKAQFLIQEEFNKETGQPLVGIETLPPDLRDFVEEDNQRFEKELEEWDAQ

[4] = test system: SARS-CoV-2 WA1 strain; experiment: Antiviral plaque reduction assay (PRA) in Vero-E6 cells; conditions: read-out: EC50-PRA, MOI 0.01, Vero-E6 cells
[5] = test system: SARS-CoV-2 Omicron (B.1.1.529); experiment: microbe, parasite or virus in culture; assay type: cell-based
[6] = molecular target: T1, SARS-CoV-2 PLpro; experiment: Surface plasmon resonance binding to immobilized PLpro; conditions: SPR, buffer with Tween-20, 25 °C
[7] = molecular target: T1, SARS-CoV-2 PLpro; experiment: Inhibition mechanism, Lineweaver-Burk plot with peptide-AMC substrate; assay type: biochemical; conditions: 40 nM PLpro
[8] = test system: SARS-CoV-2 WA1 strain; experiment: Antiviral immunofluorescence assay (IFA) in Vero-E6 cells, WA1 strain; assay type: cell-based; conditions: Severe acute respiratory syndrome coronavirus 2, Vero C1008, MOI 0.01, Vero-E6 cells
[9] = test system: SARS-CoV PLpro; conditions: read-out: IC50 against SARS-CoV PLpro; cited from earlier work
[10] = test system: SARS-CoV-2; parameters: method as in earlier work; conditions: viral loads and survival rates; cited from earlier work
[11] = IC50-PLpro-tw, with 0.01% Tween-20

With `COC(=O)c1cc2c(n1S(=O)(=O)c1ccc(C)cc1)C(=O)C(=O)c1[nH]cc(C(=O)OCc3ccccc3)c1-2` [NSC679525] the IC50 ([1]; IC50, 5 Min Incubation, 5 min preincubation with the enzyme) was 16.8 µM, the IC50 ([1]; IC50, 60 Min Incubation, 60 min preincubation with the enzyme) was 10.2 µM and the IC50 ([1]; IC50-PLpro, without Tween-20) was 6 µM. The IC50 [1, 11] was 11 µM, the CC50 at 48 h [2] was 18.6 µM and the IC50 ([3]; CFP-ubiquitin-YFP substrate, without Tween-20) was 41 µM. For the same molecule, the “SI (selectivity index)” value [3] was > 4.7, the “SI (selectivity index)” value ([3]; listed as 679525) was 6.8 and the EC50 [4] was 0.4 µM. It also gave an EC50 ([5]; Severe acute respiratory syndrome coronavirus 2, Vero C1008, read-out: EC50-Omi) of 5.42 µM, an EC50 ([5]; read-out: EC50-Omi) of 5.4 µM and a Kd [6] of 4.1 µM. The “Putative Mode of Action (mechanism of inhibition)” value [7] was “Non-competitive” and the EC50 [8] was 2.8 µM.

With `COC(=O)C1(C)Cc2cc(OC(C)=O)c(OC(C)=O)cc2N1` (stereo not shown) [NSC341956] the “Fold increase of IC50 in presence of Tween-20” value [1] was > 16 fold, the IC50 ([1]; with 0.01% Tween-20, read-out: IC50-PLpro-tw) was > 200 µM and the IC50 ([1]; without Tween-20, read-out: IC50-PLpro) was 12.4 µM.

With `CN1CCN(c2ccc([N+](=O)[O-])c3no[n+]([O-])c23)CC1` [NSC207895] the “Fold increase of IC50 in presence of Tween-20” value [1] was “more than 5 fold”, the IC50 ([1]; IC50-PLpro, without Tween-20) was 0.9 µM and the IC50 [1, 11] was 5 µM.

In the case of `CCn1ccc(-c2cc(-c3cnn(C)c3)cc([C@@H](C)NC(=O)c3cc(OCCN(C)C)ccc3C)c2)n1` [Jun12682], the “Efficacy in mouse model infected with SARS-CoV-2” value [10] is given as “efficacy in reducing viral loads and enhancing survival rates”.
